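Five compound concentrations were applied to cells in 96-well plates for 48 hours; endpoints were derived by simple linear interpolation of the resulting dose-response curve. At the GI50, growth is halved. TGI marks complete inhibition of growth.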
Tests used:
Experiment in all cases: NCI-60 cell line screen, 48 h
RPMI-8226 leukemia = tested on: RPMI-8226 leukemia
MOLT-4 leukemia = tested on: MOLT-4 leukemia
SR leukemia = tested on: SR leukemia
UO-31 renal = tested on: UO-31 renal
RXF 393 renal = tested on: RXF 393 renal
SNB-75 CNS = tested on: SNB-75 CNS
SF-539 CNS = tested on: SF-539 CNS
HL-60(TB) leukemia = tested on: HL-60(TB) leukemia
NCI-H23 lung = tested on: NCI-H23 lung
DU-145 prostate = tested on: DU-145 prostate

| Compound | TGI (RPMI-8226 leukemia) [µM] | TGI (MOLT-4 leukemia) [µM] | TGI (SR leukemia) [µM] | TGI (UO-31 renal) [µM] | TGI (RXF 393 renal) [µM] | TGI (SNB-75 CNS) [µM] | TGI (SF-539 CNS) [µM] | TGI (HL-60(TB) leukemia) [µM] | TGI (NCI-H23 lung) [µM] | GI50 (RPMI-8226 leukemia) [µM] | GI50 (MOLT-4 leukemia) [µM] | GI50 (SR leukemia) [µM] | GI50 (UO-31 renal) [µM] | GI50 (RXF 393 renal) [µM] | GI50 (DU-145 prostate) [µM] | TGI (DU-145 prostate) [µM] | GI50 (SF-539 CNS) [µM] | GI50 (HL-60(TB) leukemia) [µM] | GI50 (NCI-H23 lung) [µM] | GI50 (SNB-75 CNS) [µM] |
| --- | --- | --- | --- | --- | --- | --- | --- | --- | --- | --- | --- | --- | --- | --- | --- | --- | --- | --- | --- | --- |
| O=C(CCN(C(=O)O)S(=O)(=O)c1ccc(NC(=O)c2ccccc2)cc1)Nc1ccccc1 | > 82.4 | > 85.3 | > 100 | > 100 | > 100 | > 100 | > 100 | > 75.2 | > 100 |  |  |  |  |  |  |  |  |  |  |  |
| COc1cc(OCc2cccc(-c3ccc(C(O)c4nccs4)cc3)c2C)cc(OC)c1C=O (stereo not drawn) | 5.47 | 5.88 | 5.08 | 4.68 | 6.93 |  | 4.83 | 4.85 | 10.2 | 1.34 | 1.9 | 1.82 | 1.49 | 2.22 | 2.81 | 10.5 | 1.96 | 1.87 | 1.92 |  |
| N=C(N)C1CN(CCc2c[nH]c3ccccc23)C(=O)NC1=O (stereo not drawn) | > 100 | > 100 | > 100 | > 100 |  | > 100 |  | > 100 | > 100 |  |  |  |  |  |  | > 100 |  |  |  |  |
| O=[N+]([O-])c1cccc(C2=NN(c3ccccc3)C[N+](c3ccc(Br)cc3)=N2)c1 | > 100 | > 100 | 16.9 | > 100 | > 100 | > 100 | > 100 |  | > 100 |  |  |  |  |  |  |  |  |  |  |  |
| CCCCCCCCCCCCCC(=O)OCC(C[As](=O)(O)O)OC(=O)CCCCCCCCCCCCC (stereo not drawn) | > 100 | > 100 | > 100 | > 100 | > 100 | > 100 | > 100 |  | > 100 |  |  |  |  |  |  |  |  |  |  |  |
| CC1=C(C(=O)Nc2ccc(F)c(Cl)c2)C(c2ccccc2O)NC(=S)N1 (stereo not drawn) | > 50 | > 50 | > 50 | > 50 | > 50 |  |  | > 50 |  | 21.6 | 17.8 | 34.8 | > 50 | 2.15 | 17.3 | 45.7 |  | > 50 |  |  |
| COC(=O)C1c2cc3c(cc2C(OC2OC(C)C(OC)C(C)(OC)C2OC)CC1(C)O)C(=O)c1c(O)cc2c(c1C3=O)OC1OC2(C)C(O)C([N+](C)(C)[O-])C1O (stereo not drawn) | > 100 | 4.97 |  | 5.7 | 0.977 | 1.86 |  |  | 0.718 |  |  |  |  |  |  | > 30.1 |  |  |  |  |
| COc1cc(Nc2ncccc2C(=O)NCc2cn(Cc3cccc(Oc4ccccc4)c3)nn2)cc(OC)c1 | > 100 | > 100 |  | > 100 | > 100 | > 100 | > 100 | > 100 | > 100 | 5.25 | 4.86 |  | 5.25 | 3.77 | 10.5 | > 100 | 4.39 | 3.97 | 6.22 | 3.98 |
| CC(C)CCC1CC2C(=O)N(c3ccccc3)C(=O)C2c2[nH]c3ccccc3c21 (stereo not drawn) | 11.8 | 17.3 | 23.9 | 18.9 | 8.01 | 9.25 | 10.8 | 5.73 | 12.9 |  |  |  |  |  |  |  |  |  |  |  |
| O=C(Nc1ccc2ncccc2c1)Nc1ccc2ncccc2c1 | > 100 | > 100 | > 100 | > 100 | > 100 | > 100 | > 100 |  | > 100 |  |  |  |  |  |  | > 100 |  |  |  |  |
